Columns and labels:
[1] = biotransformation in liver microsomes; assay type: in vitro ADME; conditions: bicarbonate buffer, CO2 atmosphere, UDPGA
Excerpt: A number of studies have been conducted on precursor compounds to those of formula I of the present invention. In particular, studies have been carried out on 5,8,14-triazatetracyclo[10.3.1.0^2,110.0^4,9]-hexadeca-2(11),3,5,7,9-pentaene: [drawing 12] Means of the synthesis of this compound may be found International Patent Publication No. WO 99/35131 and WO 01/62736.

[2] = in vivo metabolism study, human (circulating and excreted metabolites)
Excerpt: (§1) The compound 5,8,14-triazatetracyclo[10.3.1.0^2,110.0^4,9]-hexadeca-2(11),3,5,7,9-pentaene has also been studied in vivo (rat, monkey, mouse, and human). Metabolite structures are described in Scheme I below.
(§2) The N-carbamoyl glucuronide represents an unusual, albeit not unprecedented metabolite that arises via association of carbon dioxide with the secondary amine followed by glucuronidation. […] The only excreted metabolites in human were the hydroxyquinoxaline metabolite (2.9% of dose): [drawing 17] and N-carbamoyl glucuronide (3.6% of dose).

[3] = in vivo metabolism study, preclinical species
Excerpt: as §1, §2

In the case of c1cnc2cc3c(cc2n1)C1CNCC3C1 [5,8,14-triazatetracyclo[10.3.1.0^2,110.0^4,9]-hexadeca-2(11),3,5,7,9-pentaene], the “biotransformation in liver microsomes” value [1] is reported as “underwent N-carbamoyl glucuronidation”.

In the case of O=C(O)C1OC(OC(=O)N2CC3CC(C2)c2cc4nccnc4cc23)C(O)C(O)C1O (stereo not drawn) [N-carbamoyl glucuronide], the “metabolites in human circulation” value [2] is reported as “Metabolites in human circulation included”, the “excreted metabolite in human” value ([2]; after 5,8,14-triazatetracyclo[10.3.1.0^2,110.0^4,9]-hexadeca-2(11),3,5,7,9-pentaene) is reported as 3.6 % of dose and the “metabolite present in rat and monkey” value [3] is reported as “present in rat and monkey”.

For O=CN1CC2CC(C1)c1cc3nccnc3cc12 [N-formyl], the “metabolites in human circulation” value [2] was “Metabolites in human circulation included”.

With Oc1cnc2cc3c(cc2n1)C1CNCC3C1 (stereo not drawn) [hydroxyquinoxaline metabolite] the “excreted metabolite in human” value ([2]; in vivo) was 2.9 % of dose.
